# Reference: patent publication US10376513B2, “Heterocyclylamines as PI3K inhibitors” (Incyte Corporation, priority 2011, dated 2019)
# Target: PI3Kδ (p110δ/p85α) (Homo sapiens (Human), UniProt O00329)
# Experiment: PI3Kδ scintillation proximity assay (Example A3)
# Type: biochemical
# Settings: 20 μM ATP, 4 nM PI3Kδ, read-out: PI3Kδ SPA IC50
# Procedure: [γ-^33P]ATP (10 mCi/mL) was purchased from Perkin-Elmer (Waltham, Mass.). […] PI3Kδ (p110δ/p85α) was purchased from Millipore (Bedford, Mass.). ATP, MgCl2, DTT, EDTA, MOPS and CHAPS were purchased from Sigma-Aldrich (St. Louis, Mo.). Wheat Germ Agglutinin (WGA) YSi SPA Scintillation Beads was purchased from GE healthcare life sciences (Piscataway, N.J.).
# The kinase reaction was conducted in polystyrene 384-well matrix white plate from Thermo Fisher Scientific in a final volume of 25 μL. Inhibitors were first diluted serially in DMSO and added to the plate wells before the addition of other reaction components. The final concentration of DMSO in the assay was 0.5%. The PI3K assays were carried out at room temperature in 20 mM MOPS, pH 6.7, 10 mM MgCl2, 5 mM DTT and CHAPS 0.03%. Reactions were initiated by the addition of ATP, the final reaction mixture consisted of 20 μM PIP2, 20 μM ATP, 0.2 μCi [γ-^33P] ATP, 4 nM PI3Kδ. […] 25 mM EDTA, 400 μM ATP. The final concentration of SPA beads was 1.0 mg/mL. After the plate sealing, plates were shaken overnight at room temperature and centrifuged at 1800 rpm for 10 minutes, the radioactivity of the product was determined by scintillation counting on Topcount (Perkin-Elmer). IC50 determination was performed by fitting the curve of percent control activity versus the log of the inhibitor concentration using the GraphPad Prism 3.0 software.
# Sequence of PI3Kδ (p110δ/p85α) (O00329 whole entry, species assumed): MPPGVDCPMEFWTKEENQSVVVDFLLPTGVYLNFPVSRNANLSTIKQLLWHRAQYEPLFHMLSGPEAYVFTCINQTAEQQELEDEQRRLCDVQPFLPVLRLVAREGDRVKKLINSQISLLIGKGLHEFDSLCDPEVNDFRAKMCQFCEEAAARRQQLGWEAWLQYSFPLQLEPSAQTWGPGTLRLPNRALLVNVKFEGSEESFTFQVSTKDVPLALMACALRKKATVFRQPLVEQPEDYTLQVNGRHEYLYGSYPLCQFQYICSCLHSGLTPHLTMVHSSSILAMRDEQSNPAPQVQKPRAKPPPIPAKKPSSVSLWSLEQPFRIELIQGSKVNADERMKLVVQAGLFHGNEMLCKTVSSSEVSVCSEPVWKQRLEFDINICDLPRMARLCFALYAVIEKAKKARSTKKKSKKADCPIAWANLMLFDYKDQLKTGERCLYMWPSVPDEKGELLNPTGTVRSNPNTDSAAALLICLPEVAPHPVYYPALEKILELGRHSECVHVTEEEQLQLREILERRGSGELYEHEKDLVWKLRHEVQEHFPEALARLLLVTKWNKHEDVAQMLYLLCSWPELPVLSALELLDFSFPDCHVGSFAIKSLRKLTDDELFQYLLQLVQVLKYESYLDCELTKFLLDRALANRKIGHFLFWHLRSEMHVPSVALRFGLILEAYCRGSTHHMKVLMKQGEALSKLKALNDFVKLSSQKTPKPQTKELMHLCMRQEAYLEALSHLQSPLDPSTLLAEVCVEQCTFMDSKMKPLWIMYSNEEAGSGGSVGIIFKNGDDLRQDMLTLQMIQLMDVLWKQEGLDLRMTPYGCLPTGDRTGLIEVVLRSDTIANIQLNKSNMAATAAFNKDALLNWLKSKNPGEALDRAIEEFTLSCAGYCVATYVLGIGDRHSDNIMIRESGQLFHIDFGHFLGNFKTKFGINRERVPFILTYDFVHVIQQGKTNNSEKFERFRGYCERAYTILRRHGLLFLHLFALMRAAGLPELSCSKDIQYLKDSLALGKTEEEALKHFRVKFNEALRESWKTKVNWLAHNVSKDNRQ
# Sequence of PI3Kδ (p110δ/p85α) (P27986 whole entry partner, species assumed): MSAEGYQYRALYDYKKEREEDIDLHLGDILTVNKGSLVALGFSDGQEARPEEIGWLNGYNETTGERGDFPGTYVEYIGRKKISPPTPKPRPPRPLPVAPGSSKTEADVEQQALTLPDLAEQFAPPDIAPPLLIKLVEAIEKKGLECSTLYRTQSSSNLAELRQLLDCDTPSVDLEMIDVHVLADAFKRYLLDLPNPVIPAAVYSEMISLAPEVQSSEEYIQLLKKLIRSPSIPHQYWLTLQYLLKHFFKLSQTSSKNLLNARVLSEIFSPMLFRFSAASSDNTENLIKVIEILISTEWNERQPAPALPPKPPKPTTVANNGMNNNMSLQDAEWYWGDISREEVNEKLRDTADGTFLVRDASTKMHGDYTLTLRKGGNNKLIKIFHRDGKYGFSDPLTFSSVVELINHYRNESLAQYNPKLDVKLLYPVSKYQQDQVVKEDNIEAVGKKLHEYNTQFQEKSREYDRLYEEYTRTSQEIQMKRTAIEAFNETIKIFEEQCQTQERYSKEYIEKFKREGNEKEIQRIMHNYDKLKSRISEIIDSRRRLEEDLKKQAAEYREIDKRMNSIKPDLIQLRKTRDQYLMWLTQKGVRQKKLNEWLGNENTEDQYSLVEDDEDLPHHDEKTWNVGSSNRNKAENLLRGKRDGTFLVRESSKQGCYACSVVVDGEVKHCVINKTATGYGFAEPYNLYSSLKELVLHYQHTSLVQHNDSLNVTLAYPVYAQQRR
row,Structure (SMILES),IC50
1,"COc1c(C(C)n2nc(C)c3c(N)ncnc32)cc(Cl)c(C)c1-c1ccc(OCCO)nc1 (centres unmarked) [Example 188, 2-(5-(3-(1-(4-Amino-3-methyl-1H-pyrazolo[3,4-d]pyrimidin-1-yl)ethyl)-5-chloro-2-methoxy-6-methylphenyl)pyridin-2-yloxy)ethanol]",< 10 nM
2,"CCOc1c(C(C)n2nc(C)c3c(N)ncnc32)cc(Cl)c(C)c1-c1cnn(CC(N)=O)c1 (centres unmarked) [Example 203, 2-(4-(3-(1-(4-Amino-3-methyl-1H-pyrazolo[3,4-d]pyrimidin-1-yl)ethyl)-5-chloro-2-ethoxy-6-methylphenyl)-1H-pyrazol-1-yl)acetamide]",< 10 nM
3,"Cc1c(Cl)cc(C(C)n2nc(C)c3c(N)ncnc32)c(OCC2CC2)c1-c1ccc(C(=O)N(C)C)nc1 (centres unmarked) [Example 190, 5-(3-(1-(4-Amino-3-methyl-1H-pyrazolo[3,4-d]pyrimidin-1-yl)ethyl)-5-chloro-2-(cyclopropylmethoxy)-6-methylphenyl)-N,N-dimethylpicolinamide bis(2,2,2-trifluoroacetate)]",< 10 nM
4,"Cc1c(Cl)cc(C(C)n2nc(C)c3c(N)ncnc32)c(OCC(F)F)c1-c1ccc(C(=O)N(C)C)nc1 (centres unmarked) [Example 189, 5-(3-(1-(4-Amino-3-methyl-1H-pyrazolo[3,4-d]pyrimidin-1-yl)ethyl)-5-chloro-2-(2,2-difluoroethoxy)-6-methylphenyl)-N,N-dimethylpicolinamide bis(2,2,2-trifluoroacetate)]",< 10 nM
5,"COc1c(C(C)n2nc(C)c3c(N)ncnc32)cc(Cl)c(C)c1-c1ccc(NCCO)nc1 (centres unmarked) [Example 184, 2-[(5-{3-[1-(4-Amino-3-methyl-1H-pyrazolo[3,4-d]pyrimidin-1-yl)ethyl]-5-chloro-2-methoxy-6-methylphenyl}pyridin-2-yl)amino]ethanol]",< 10 nM
6,"COc1c(C(C)n2nc(C(F)F)c3c(N)ncnc32)cc(Cl)c(C)c1-c1ccc(C(=O)N(C)C)nc1 (centres unmarked) [Example 191, 5-(3-{1-[4-Amino-3-(difluoromethyl)-1H-pyrazolo[3,4-d]pyrimidin-1-yl]ethyl}-5-chloro-2-methoxy-6-methylphenyl)-N,N-dimethylpyridine-2-carboxamide]",< 10 nM
7,"COc1c(C(C)n2nc(C)c3c(N)ncnc32)cc(Cl)c(C)c1CC#N (centres unmarked) [Example 194, {3-[1-(4-Amino-3-methyl-1H-pyrazolo[3,4-d]pyrimidin-1-yl)ethyl]-5-chloro-2-methoxy-6-methylphenyl}acetonitrile]",< 10 nM
8,"CCOc1c(C(C)n2nc(C)c3c(N)ncnc32)cc(Cl)c(C)c1C#N (centres unmarked) [Example 211, 3-[1-(4-Amino-3-methyl-1H-pyrazolo[3,4-d]pyrimidin-1-yl)ethyl]-5-chloro-2-ethoxy-6-methylbenzonitrile]",< 10 nM
9,"COc1c(C(C)n2nc(C)c3c(N)ncnc32)cc(Cl)c(C)c1-c1cncc(C(=O)N(C)C2CC2)c1 (centres unmarked) [Example 174, 5-(3-(1-(4-Amino-3-methyl-1H-pyrazolo[3,4-d]pyrimidin-1-yl)ethyl)-5-chloro-2-methoxy-6-methylphenyl)-N-cyclopropyl-N-methylnicotinamide bis(2,2,2-trifluoroacetate)]",< 10 nM
10,"CCOc1c(C(C)n2nc(C)c3c(N)ncnc32)cc(Cl)c(C)c1-c1ccc(C(=O)N(C)C)cn1 (centres unmarked) [Example 208, 6-{3-[1-(4-Amino-3-methyl-1H-pyrazolo[3,4-d]pyrimidin-1-yl)ethyl]-5-chloro-2-ethoxy-6-methylphenyl}-N,N-dimethylnicotinamide bis(trifluoroacetate)]",< 10 nM
11,"COc1c(C(C)n2nc(C)c3c(N)ncnc32)cc(Cl)c(F)c1C1CN(C[C@H](C)O)C1 (single isomer, unassigned) [68 (2nd peak)]",< 10 nM
